From ChEMBL document CHEMBL1132766, “Synthesis and antiamoebic activity of new cyclooctadiene ruthenium(II) complexes with 2-acetylpyridine and benzimidazole derivatives” (Bioorg Med Chem Lett, 2000)
Values after ≈ are worked out from the molar mass of the structure shown.

Tested on: Entamoeba histolytica
Assay: Tested for antiamoebic activity against HK-9 strain of Entamoeba histolytica
Type: functional, organism-based

SMILES	IC50
C/C(=N\NC(N)=S)c1ccccn1	0.31 µg/mL (≈ 1.6 µM)
c1ccc(-c2nc3ccccc3[nH]2)nc1	0.42 µg/mL (≈ 2.15 µM)
C/C(=N\N=C(/S)SCc1ccccc1)c1ccccn1	0.4 µg/mL (≈ 1.33 µM)
CS/C(S)=N/N=C(\C)c1ccccn1	0.38 µg/mL (≈ 1.69 µM)
Cc1ncc([N+](=O)[O-])n1CCO [METRONIDAZOLE]	0.33 µg/mL (≈ 1.93 µM)
